Test results reported in ChEMBL document CHEMBL3608240, “Tetrahydropyrrolo-diazepenones as inhibitors of ERK2 kinase” (Bioorg Med Chem Lett, 2015).

Assays:
[1] = Clearance in rat at 1 mg/kg, iv relative to hepatic blood flow; assay type: ADME, organism-based, Liver; details: in vivo
[2] = Oral bioavailability in rat at 250 mg/kg; assay type: ADME, organism-based; details: in vivo

clearance [1]: 79 mL/min/kg | bioavailability [2]: < 10%
Structure (SMILES): O=C1c2cc(-c3ccnc(NC4CCOCC4)n3)cn2CCCN1[C@H](CO)c1ccccc1
